Here are results for 36 molecules from patent publication US9353051B2, “Antiviral drugs for treatment or prevention of dengue infection” (Siga Technologies Inc., priority 2007, dated 2016).

The test system of the assay is Dengue-2 (Strain New Guinea C). The assay is described as follows: viral yield assay against Dengue-2 in Vero cells. Type of assay: cell-based. The conditions noted are these: Dengue virus; Vero cells, MOI 0.1, harvested 48 hours post infection; read-out: Activity (anti-dengue 2 viral activity, EC50). Here is the method: Compounds that were active in the primary screen were also tested for activity in viral yield assays. […] Vero cells in 12-well plates were infected with dengue-2 virus at a multiplicity of infection (MOI) of 0.1, treated with compound (or DMSO as a control), incubated at 37° C., harvested 48 hours post infection and titered on Vero cells as described above. The EC50 was calculated through ExcelFit. Those compounds with activity below 1 μM are indicated with “A”, those with activity between 1 and 10 μM are indicated with “B”, those with activity between 10 and 25 μM with “C”, and those with activity above 25 μM are indicated with “D”.

Each structure is given as a SMILES string.

As a reminder, the EC50 is the midpoint of the concentration-response curve. `CC(C)N(C)S(=O)(=O)c1ccc(NC(=O)Cn2nnc3ccccc3c2=O)cc1` [Compound 86, N-[4-(Isopropyl-methyl-sulfamoyl)-phenyl]-2-(4-oxo-4H-benzo[d][1,2,3]triazin-3-yl)-acetamide]: the EC50 is more than 25 µM.
The value for `O=C(Cn1nnc2ccccc2c1=O)Nc1ccc(S(=O)(=O)N2CCCCC2)cc1` [Compound 87, 2-(4-Oxo-4H-benzo[d][1,2,3]triazin-3-yl)-N-[4-(piperidine-1-sulfonyl)-phenyl]-acetamide] was more than 25 µM; that for `CCN(CC)S(=O)(=O)c1ccc(N(C)C)c(NC(=O)Cn2cnc3ccccc3c2=O)c1` [Compound 88, N-(5-Diethylsulfamoyl-2-dimethylamino-phenyl)-2-(4-oxo-4H-quinazolin-3-yl)-acetamide] was more than 25 µM.
The value for `CCN(CC)S(=O)(=O)c1ccc(C)c(NC(=O)Cn2cnc3ccccc3c2=O)c1` [Compound 89, N-(5-Diethylsulfamoyl-2-methyl-phenyl)-2-(4-oxo-4H-quinazolin-3-yl)-acetamide] was more than 25 µM; that for `CCN(CC)S(=O)(=O)c1cc(C)c(C)c(NC(=O)Cn2cnc3ccccc3c2=O)c1` [Compound 90, N-(5-Diethylsulfamoyl-2,3-dimethyl-phenyl)-2-(4-oxo-4H-quinazolin-3-yl)-acetamide] was more than 25 µM.
To `CCN(CC)S(=O)(=O)c1ccc(OC)c(NC(=O)Cn2cnc3ccccc3c2=O)c1` [Compound 91, N-(5-Diethylsulfamoyl-2-methoxy-phenyl)-2-(4-oxo-4H-quinazolin-3-yl)-acetamide] belongs more than 25 µM.
For the molecule `CCOc1ccc(S(=O)(=O)N(CC)CC)cc1NC(=O)Cn1cnc2ccccc2c1=O` [Compound 92, N-(5-Diethylsulfamoyl-2-ethoxy-phenyl)-2-(4-oxo-4H-quinazolin-3-yl)-acetamide], the EC50 was more than 25 µM.
To `CCN(CC)S(=O)(=O)c1ccc(Cl)c(NC(=O)Cn2cnc3ccccc3c2=O)c1` [Compound 93, N-(2-Chloro-5-diethylsulfamoyl-phenyl)-2-(4-oxo-4H-quinazolin-3-yl)-acetamide] belongs more than 25 µM; to `CCN(CC)S(=O)(=O)c1ccc(O)c(NC(=O)Cn2nnc3ccccc3c2=O)c1` [Compound 94, N-(5-Diethylsulfamoyl-2-hydroxy-phenyl)-2-(4-oxo-4H-benzo[d][1,2,3]triazin-3-yl)-acetamide], more than 25 µM.
The value for `CCN(CC)S(=O)(=O)c1ccc(C)c(NC(=O)Cn2nnc3ccccc3c2=O)c1` [Compound 95, N-(5-Diethylsulfamoyl-2-methyl-phenyl)-2-(4-oxo-4H-benzo[d][1,2,3]triazin-3-yl)-acetamide] was more than 25 µM.
Consider `CCN(CC)S(=O)(=O)c1ccc2c(c1)CCN2Cc1nc2ccccc2c(=O)n1C` [Compound 96, 1-(3-Methyl-4-oxo-3,4-dihydro-quinazolin-2-ylmethyl)-2,3-dihydro-1H-indole-5-sulfonic acid diethylamide], for which the EC50 is more than 25 µM.
To `CCN(CC)S(=O)(=O)c1ccc2c(c1)CCCN2C(=O)Cn1cnc2c(C)cccc2c1=O` [Compound 97, 1-[2-(8-Methyl-4-oxo-4H-quinazolin-3-yl)-acetyl]-1,2,3,4-tetrahydro-quinoline-6-sulfonic acid diethylamide] belongs more than 25 µM; to `CN(Cc1ccccc1)S(=O)(=O)c1ccc(NC(=O)CCn2cnc3ccccc3c2=O)cc1` [Compound 98, N-[4-(Benzyl-methyl-sulfamoyl)-phenyl]-3-(4-oxo-4H-quinazolin-3-yl)-propionamide], more than 25 µM; to `Cc1ccc(S(=O)(=O)Nc2ccc3ncn(Cc4ccccc4)c(=O)c3c2)cc1` [Compound 99, N-(3-Benzyl-4-oxo-3,4-dihydro-quinazolin-6-yl)-4-methyl-benzenesulfonamide], more than 25 µM.
As for `Cc1nn(CC(=O)Nc2ccc(S(N)(=O)=O)cc2)c(=O)c2ccccc12` [Compound 100, 2-(4-Methyl-1-oxo-1H-phthalazin-2-yl)-N-(4-sulfamoyl-phenyl)-acetamide], the EC50 is more than 25 µM.
The value for `CCn1c(=O)c2ccccc2n(CC(=O)NCCc2ccc(S(N)(=O)=O)cc2)c1=O` [Compound 101, 2-(3-Ethyl-2,4-dioxo-3,4-dihydro-2H-quinazolin-1-yl)-N-[2-(4-sulfamoyl-phenyl)-ethyl]-acetamide] was more than 25 µM.
Consider `Cn1c(=O)c2ccccc2n(CC(=O)NCCc2ccc(S(N)(=O)=O)cc2)c1=O` [Compound 102, 2-(3-Methyl-2,4-dioxo-3,4-dihydro-2H-quinazolin-1-yl)-N-[2-(4-sulfamoyl-phenyl)-ethyl]-acetamide], for which the EC50 is more than 25 µM.
To `CC(=O)NCCc1ccc(S(=O)(=O)Nc2ccc3ncn(C)c(=O)c3c2)cc1` [Compound 103, N-{2-[4-(3-Methyl-4-oxo-3,4-dihydro-quinazolin-6-ylsulfamoyl)-phenyl]-ethyl}-acetamide] belongs more than 25 µM; to `CC(=O)NCCc1ccc(S(=O)(=O)Nc2ccc3ncn(Cc4ccccc4)c(=O)c3c2)cc1` [Compound 104, N-{2-[4-(3-Benzyl-4-oxo-3,4-dihydro-quinazolin-6-ylsulfamoyl)-phenyl]-ethyl}-acetamide], more than 25 µM; to `CCN(CC)S(=O)(=O)c1cc(NC(=O)Cn2cnc3ccccc3c2=O)ccc1C` [Compound 105, N-(3-Diethylsulfamoyl-4-methyl-phenyl)-2-(4-oxo-4H-quinazolin-3-yl)-acetamide], more than 25 µM.
The value for `NS(=O)(=O)c1cccc(NC(=O)Cn2cnc3ccccc3c2=O)c1` [Compound 106, 2-(4-Oxo-4H-quinazolin-3-yl)-N-(3-sulfamoyl-phenyl)-acetamide] was more than 25 µM; that for `CN(C)S(=O)(=O)c1cccc(NC(=O)Cn2cnc3ccccc3c2=O)c1` [Compound 107, N-(3-Dimethylsulfamoyl-phenyl)-2-(4-oxo-4H-quinazolin-3-yl)-acetamide] was more than 25 µM; that for `NS(=O)(=O)c1ccc(NC(=O)Cn2nc(C(=O)O)c3ccccc3c2=O)cc1` [Compound 108, 4-Oxo-3-[(4-sulfamoyl-phenylcarbamoyl)-methyl]-3,4-dihydro-phthalazine-1-carboxylic acid] was more than 25 µM.
To `NS(=O)(=O)c1ccc(NC(=O)CCc2nc3ccccc3c(=O)[nH]2)cc1` [Compound 109, 3-(4-Oxo-3,4-dihydro-quinazolin-2-yl)-N-(4-sulfamoyl-phenyl)-propionamide] belongs more than 25 µM; to `NS(=O)(=O)c1ccc(NC(=O)Cn2cnc3cc([N+](=O)[O-])ccc3c2=O)cc1` [Compound 110, 2-(7-Nitro-4-oxo-4H-quinazolin-3-yl)-N-(4-sulfamoyl-phenyl)-acetamide], more than 25 µM.
With `NS(=O)(=O)c1ccc(NC(=O)COC(=O)Cn2cnc3ccccc3c2=O)cc1` [Compound 111, (4-Oxo-4H-quinazolin-3-yl)-acetic acid (4-sulfamoyl-phenylcarbamoyl)-methyl ester], the EC50 was more than 25 µM.
To `CN(Cc1nc2ccccc2c(=O)[nH]1)C(=O)c1ccc(S(=O)(=O)N(C)C)cc1` [Compound 112, 4-Dimethylsulfamoyl-N-methyl-N-(4-oxo-3,4-dihydro-quinazolin-2-ylmethyl)-benzamide] belongs more than 25 µM; to `O=C(Cn1nnc2ccccc2c1=O)Nc1ccc(S(=O)(=O)N2CCCC2)cc1` [Compound 113, 2-(4-Oxo-4H-benzo[d][1,2,3]triazin-3-yl)-N-[4-(pyrrolidine-1-sulfonyl)-phenyl]-acetamide], more than 25 µM.
Turning to `CCN(CC(=O)NCCc1ccc(S(N)(=O)=O)cc1)Cc1nc2ccccc2c(=O)[nH]1` [Compound 114, 2-[Ethyl-(4-oxo-3,4-dihydro-quinazolin-2-ylmethyl)-arnino]-N-[2-(4-sulfamoyl-phenyl)-ethyl]-acetamide], the EC50 was more than 25 µM.
To `CCN(CC(=O)Nc1ccc(S(=O)(=O)N(C)C)cc1)Cc1nc2ccccc2c(=O)[nH]1` [Compound 115, N-(4-Dimethylsulfamoyl-phenyl)-2-[ethyl-(4-oxo-3,4-dihydro-quinazolin-2-ylmethyl)-amino]-acetamide] belongs more than 25 µM; to `NS(=O)(=O)c1ccc(NC(=O)COC(=O)CCc2nc3ccccc3c(=O)[nH]2)cc1` [Compound 116, 3-(4-Oxo-3,4-dihydro-quinazolin-2-yl)-propionic acid (4-sulfamoyl-phenylcarbamoyl)-methyl ester], more than 25 µM.
The value for `Cc1ccc(S(=O)(=O)N(C)c2ccc(OC(=O)Cn3cnc4ccccc4c3=O)cc2)cc1C` [Compound 117, (4-Oxo-4H-quinazolin-3-yl)-acetic acid 4-[(3,4-dimethyl-benzenesulfonyl)-methyl-amino]-phenyl ester] was more than 25 µM; that for `CCN(CC(=O)NCCc1ccc(S(N)(=O)=O)cc1)Cc1nc2cc(OC)c(OC)cc2c(=O)[nH]1` [Compound 118, 2-[(6,7-Dimethoxy-4-oxo-3,4-dihydro-quinazolin-2-ylmethyl)-ethyl-amino]-N-[2-(4-sulfamoyl-phenyl)-ethyl]-acetamide] was more than 25 µM.
The value for `NS(=O)(=O)c1ccc(NC(=O)Cn2c(=O)cnc3ccccc32)cc1` [Compound 119, 2-(2-Oxo-2H-quinoxalin-1-yl)-N-(4-sulfamoyl-phenyl)-acetamide] was more than 25 µM.
With `CCN(CC(=O)Nc1ccc(S(N)(=O)=O)cc1)Cc1nc2cc(OC)c(OC)cc2c(=O)[nH]1` [Compound 120, 2-[(6,7-Dimethoxy-4-oxo-3,4-dihydro-quinazolin-2-ylmethyl)-ethyl-amino]-N-(4-sulfamoyl-phenyl)-acetamide], the EC50 was more than 25 µM.
To `O=C(Cn1cnc2ccccc2c1=O)Nc1cccc(S(=O)(=O)N2CCCC2)c1` [Compound 121, 2-(4-Oxo-4H-quinazolin-3-yl)-N-[3-(pyrrolidine-1-sulfonyl)-phenyl]-acetamide] belongs more than 25 µM.
